Test [1] concerns MDA-MB-231 cells of breast cancer. In words: transwell migration test. Type of test: cell-based, human. Conditions: 24 h. As to the method:
Inoculate SCC4 cells of head and neck cancer, SW579 cells of thyroid cancer, A549 cells of lung cancer, TE13 cells of esophageal squamous cell carcinoma, MGC803 cells of stomach cancer, MDA-MB-231 cells of breast cancer, UOK262 cells of kidney cancer, and A431 cells of skin cancer of human to transwell cells, 100 μL per well, and meanwhile add micropeptides HMMW I to IX at different doses to every cell. Add 0.6 mL of complete medium containing 10% FBS to the transwell cells to stimulate cell migration, and culture in 5% CO2 at 37 DEG C. for 24 h. Discard the medium in the wells, fix with 90% alcohol at room temperature for 30 min, stain with 0.1% crystal violet at room temperature for 10 min, rinse with clear water, gently wipe off the non-migrated cells in the upper layer with a cotton swab, observe under a microscope and select four fields of view to take pictures and count. Calculate the migration inhibition rate (MIR) of the cells according to the following formula: […]
The test was repeated independently three times. Mean±SD was calculated based on the test results. Statistical t test was done. Here, “the test was repeated independently three times” means that every dose of any type of cells was tested repeatedly three times, and then the above formula was used to calculate the number of migrated cells (Mean±SD). Value P was used to express statistical difference. The statistical significance of the results is a method for estimating how true the results are (the totality can be represented), *P<0.05 means significant difference, and **P<0.01 means very significant difference.

Test [2] relates to SW579 cells of thyroid cancer. It counts as in vivo, BALB/c nude mice. As to conditions: mouse, in vivo, 15 mg/kg. As to the method: (§1) • (1) Massively culture SCC4 cells of head and neck cancer, SW579 cells of thyroid cancer, A549 cells of lung cancer, TE13 cells of esophageal squamous cell carcinoma, MGC803 cells of stomach cancer, MDA-MB-231 cells of breast cancer, UOK262 cells of kidney cancer, and A431 cells of skin cancer of human, digest with a 0.25% pancreatin solution, centrifuge the cell suspension at 1,000 rpm for 5 min after termination of digestion, re-suspend the cells by serum-free DMEM culture medium, then count the cells and adjust cell concentration to 5×10^7 cells/ml; • (2) Inoculate each nude mouse (female mice at the age of 4-6 weeks and with a weight of 14-16 g were ordered and adaptively reared for 1 week in an SPF animal breeding room) with 100 μl of the cell suspension of the corresponding group in the left armpit, and the number of cells injected is 5×10^6; • (3) After inoculation, the tumor growth at the inoculation sites of nude mice was closely observed. On the 7th day after inoculation, white scabs appeared at the inoculation sites, which could move subcutaneously after being touched. With the growth of tumor tissue, hard tumor masses were gradually formed at the inoculation sites. On about the 14th day, the average volume of the tumor tissue reached 100 mm^3. BALB/c nude mice were randomly divided into three groups (the normal saline group was a blank control group, the micropeptide HMMW at a dose of 10 mg/kg was a low-dose group, and the micropeptide HMMW at a dose of 15 mg/kg was a high-dose group), 6 mice in each group, and the animals weighed 16-18 g at the beginning of administration; • (4) The volume of the transplanted tumor was measured and recorded every two days. The calculation formula of tumor volume (TV) is shown below: TV=0.5×a×b^2 • where, a is the length of the transplanted tumor (mm), and b is the width of the transplanted tumor (mm). • (1) Massively culture SCC4 cells of head and neck cancer, SW579 cells of thyroid cancer, A549 cells of lung cancer, TE13 cells of esophageal squamous cell carcinoma, MGC803 cells of stomach cancer, MDA-MB-231 cells of breast cancer, UOK262 cells of kidney cancer, and A431 cells of skin cancer of human, digest with a 0.25% pancreatin solution, centrifuge the cell suspension at 1,000 rpm for 5 min after termination of digestion, re-suspend the cells by serum-free DMEM culture medium, then count the cells and adjust cell concentration to 5×10^7 cells/ml; • (2) Inoculate each nude mouse (female mice at the age of 4-6 weeks and with a weight of 14-16 g were ordered and adaptively reared for 1 week in an SPF animal breeding room) with 100 μl of the cell suspension of the corresponding group in the left armpit, and the number of cells injected is 5×10^6; • (3) After inoculation, the tumor growth at the inoculation sites of nude mice was closely observed. On the 7th day after inoculation, white scabs appeared at the inoculation sites, which could move subcutaneously after being touched. With the growth of tumor tissue, hard tumor masses were gradually formed at the inoculation sites. On about the 14th day, the average volume of the tumor tissue reached 100 mm^3. BALB/c nude mice were randomly divided into three groups (the normal saline group was a blank control group, and each of micropeptides HMMW I to IX formed a group at a dose of 15 mg/kg), 6 mice in each group, and the animals weighed 16-18 g at the beginning of administration; • (4) The volume of the transplanted tumor was measured and recorded every two days. The calculation formula of tumor volume (TV) is shown below: TV=0.5×a×b^2 • where, a is the length of the transplanted tumor (mm), and b is the width of the transplanted tumor (mm).

Test [3] concerns UOK262 cells of kidney cancer. Type of test: in vivo, BALB/c nude mice. As to conditions: mouse, in vivo, 15 mg/kg. The procedure:
as §1

Test [4] deals with MDA-MB-231 cells of breast cancer. Type of test: in vivo, BALB/c nude mice. Conditions: mouse, in vivo, 15 mg/kg. As to the method:
as §1

Test [5] deals with A431 cells of skin cancer. Type of test: in vivo, BALB/c nude mice. Conditions: mouse, in vivo, 15 mg/kg. As to the method: as §1
The test system of test [6] is TE13 cells of esophageal squamous cell carcinoma. It counts as in vivo, BALB/c nude mice. As to conditions: mouse, in vivo, 15 mg/kg. The procedure:
as §1

Test [7] concerns A549 cells of lung cancer. It counts as in vivo, BALB/c nude mice. As to conditions: mouse, in vivo, 15 mg/kg. As to the method:
as §1

For test [8], the system named is SCC4 cells of head and neck cancer. It counts as in vivo, BALB/c nude mice. As to conditions: mouse, in vivo, 15 mg/kg. As to the method:
as §1

For test [9], the system named is MGC803 cells of stomach cancer. Type of test: in vivo, BALB/c nude mice. As to conditions: mouse, in vivo, 15 mg/kg. The procedure:
as §1

No end group written: not given here.

With “MERAGVPGFSPRRSSVEAKMQSTSCSVRKSSTVTAWPAVVLLLSWGKDDEE-OH [HMMW-IV]”, the migration inhibition rate in test [1] (dose 1 μM) is 29.06%; in [1] (dose 4 μM), 51.34%; in test [1] (dose 16 μM), 73.38%. For the same substance, the “in vivo tumor growth inhibition rate” value in test [2] came out at 72.13%; in test [3] it was 64.70%; in test [4], 65.93%; in test [5] it was 71.71%; in test [6], 61.41%; in [7], 68.25%. The “in vivo tumor growth inhibition rate” value in test [8] is on record as 71.72%; in test [9], 67.52%.

Regarding “MERAGVPGFSPRRSSVEAKMQSTSCSVRKSSTVTAWPAVVLLLSWGQRRGE-OH [HMMW-VIII]”, the figures for the migration inhibition rate in test [1] (dose 1 μM), in test [1] (dose 4 μM) and in [1] (dose 16 μM) were 26.14%, 50.24% and 73.32%, respectively. For the same substance, the “in vivo tumor growth inhibition rate” value in test [2] turned out to be 71.76%; in test [3], 65.15%; in [4], 69.82%; in test [5], 68.21%; in test [6], 68.81%; in test [7] it was 69.30%. Further, the “in vivo tumor growth inhibition rate” value in [8] is reported as 68.24%; in test [9] it was 69.38%.
